The experiment deals with T1, RXFP1 (Homo sapiens, UniProt Q9HBX9).
T1 construct: OVCAR5 cells expressing endogenous RXFP1; endogenous in cells; host or cells: OVCAR5
T1 sequence (Q9HBX9 1-757): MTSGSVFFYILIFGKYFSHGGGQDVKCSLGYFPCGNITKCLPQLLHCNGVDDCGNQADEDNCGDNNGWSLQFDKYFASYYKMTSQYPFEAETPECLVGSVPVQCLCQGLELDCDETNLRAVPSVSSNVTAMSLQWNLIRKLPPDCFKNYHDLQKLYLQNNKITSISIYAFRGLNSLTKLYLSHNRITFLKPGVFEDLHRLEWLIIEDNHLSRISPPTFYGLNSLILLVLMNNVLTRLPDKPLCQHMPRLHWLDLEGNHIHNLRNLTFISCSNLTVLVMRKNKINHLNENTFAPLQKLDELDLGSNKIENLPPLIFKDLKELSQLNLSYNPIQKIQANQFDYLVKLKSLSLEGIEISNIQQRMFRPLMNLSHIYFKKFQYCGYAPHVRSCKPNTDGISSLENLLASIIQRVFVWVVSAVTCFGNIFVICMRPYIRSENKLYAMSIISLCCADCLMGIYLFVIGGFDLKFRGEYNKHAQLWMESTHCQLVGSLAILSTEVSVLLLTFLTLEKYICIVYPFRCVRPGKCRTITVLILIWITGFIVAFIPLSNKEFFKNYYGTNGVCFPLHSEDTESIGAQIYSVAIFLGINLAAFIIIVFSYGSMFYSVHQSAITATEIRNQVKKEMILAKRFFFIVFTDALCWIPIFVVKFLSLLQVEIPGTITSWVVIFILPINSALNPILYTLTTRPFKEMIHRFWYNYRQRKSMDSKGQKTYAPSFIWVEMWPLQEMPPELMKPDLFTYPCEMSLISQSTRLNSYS
Briefly: OVCAR5 cAMP assay (HTRF). The experiment is classed as cell-based. Conditions: for EC50: OVCAR 5 cells expressing endogenous RXFP1, cAMP readout; for Emax: OVCAR 5 cells, maximal cAMP relative to H2-relaxin. The text has this: OVCAR5 cells expressing endogenous RXFP1 were used to test RXP1 agonist properties of peptides of the invention, and in particular of the peptides of sequence SEQ ID NO: 1-97.
Since RXFP1 is a Gs coupled GPCR, cAMP was used as readout of RXFP1 activation.
Isobutyl Methyl Xanthine (IBMX) was used to inhibit phosphodiesterase activity facilitating cAMP measurements. HTRF (Homogenous Time Resolved Fluorescence) technology was used to detect cAMP due to its great sensitivity.
In summary, OVCAR5 were grown in regular medium (RPMI) containing 10% fetal calf serum (FCS) and 1% antibiotics (penicillin/streptomycin).
Before the experiments, cells were detached with accutase and incubated for 40 minutes at 37° C. with 1 mM (3-isobutyl-1-methylxanthine) IBMX.
Cells were then distributed in 384 black well plates containing increasing concentrations of the different peptides in a fix volume of medium (without FCS).
After an incubation of 30 min at 37° C. in an humid incubator in 5% CO2, the reaction was stopped by adding a fixed volume of a solution containing a lysis buffer and cAMP-D2 (cAMP labeled with the dye d2) and the anti cAMP antibody linked to Europium and used for cAMP detection.
Readout of the experiment were performed on a fluorimeter allowing HTRF measurement. Activation curves were generated by plotting the intracellular value of cAMP versus log 10 of the compound concentration.
The 50% activation concentration (EC50) was calculated by nonlinear regression using the sigmoidal dose-response (variable slope) equation with Prism 5 software.
Emax % was determined as the maximal intracellular value of cAMP for test compound (upper limit of cAMP vs concentration curve) divided by the maximal intracellular value of cAMP for H2-relaxin determined in the same test occasion multiplied by 100. Emax %=100×[cAMPtest cpd]/[cAMPH2-Rlx]
For orientation: Changes in cAMP serve as a functional read-out for many G protein-coupled receptors.

Starred links: 1 amine or outer side, 2 acyl side, 3 side chain; linkers in the order of their positions; H or OH if unused. Non-standard residues stand in square brackets, D forms with d. Residues, ends and D or L forms follow the SMILES beside them. Groups on a side chain read outwards from the residue. *: point of attachment. X7 = CCCCCCCCCCCCCCCC(=O)N[C@@H](CCC(=O)N[C@@H](CCC(=O)N[C@@H](CCC(=O)NCCCOCCOCCOCCCNC(=O)COCC(=O)NCCCOCCOCCOCCCNC(=O)COCC(=O)NCCCOCCOCCOCCCNC(=O)COCC(=O)*)C(=O)O)C(=O)O)C(=O)O; X1 = CCCCCCCCCCCCCCCC(=O)N[C@@H](CCC(=O)N[C@@H](CCC(=O)N[C@@H](CCC(=O)NCCCOCCOCCOCCCNC(=O)CCC(=O)NCCCOCCOCCOCCCNC(=O)CCC(=O)NCCCOCCOCCOCCCN*)C(=O)O)C(=O)O)C(=O)O; γGlu = O=C(O)[C@H](CCC(=O)[*:2])N[*:1]; Palmitoyl = CCCCCCCCCCCCCCCC(=O)*; Suc = O=C(CCC(=O)[*:2])[*:1]; αMeK = C[C@](N)(CCCCN)C(=O)O; hLys = NCCCCC[C@H](N)C(=O)O; AEEA = NCCOCCOCC(=O)O; Aib = CC(C)(N)C(=O)O

The EC50 is the concentration at which the effect is half-maximal. One may read the Emax as the size of the effect at its maximum, as opposed to the concentration needed.

The compound `CCCCCCCCCCCCCCCC(=O)N[C@@H](CCC(=O)N[C@@H](CCC(=O)N[C@@H](CCC(=O)NCCCOCCOCCOCCCNC(=O)CCC(=O)NCCCOCCOCCOCCCNC(=O)CCC(=O)NCCCOCCOCCOCCCNC(=O)CCC(=O)NCCCC[C@H](NC(=O)CNC(=O)[C@H](CCC(=O)O)NC(=O)C(C)(C)NC(=O)C(C)(C)NC(=O)[C@@H](NC(=O)[C@H](CCCCNC(C)=O)NC(=O)[C@H](C)NC(=O)[C@H](CCCNC(=N)N)NC(=O)[C@@H](NC(=O)[C@H](CCCCN)NC(=O)[C@H](CCC(=O)O)NC(=O)[C@H](CCCNC(=N)N)NC(=O)CNC(=O)[C@H](CCC(=O)O)NC(=O)[C@H](CC(C)C)NC(C)=O)C(C)C)[C@@H](C)CC)C(=O)N[C@@H](CO)C(=O)N[C@H](C(=O)N[C@@H](Cc1ccccc1)C(=O)N[C@H](CO)C(=O)N[C@@H](CCCCN)C(=O)N[C@@H](CCCNC(=N)N)C(=O)N[C@@H](C)C(=O)N[C@@H](CCCCNC(C)=O)C(N)=O)[C@@H](C)O)C(=O)O)C(=O)O)C(=O)O` [compound 14] (Ac-LEGREKVRAK(Ac)I[Aib][Aib]EGK([Suc-X1])STF[dS]KRAK(Ac)-NH2) yielded an EC50 of 3.2 nM and an Emax of 90%.
Regarding `CCCCCCCCCCCCCCCC(=O)N[C@@H](CCC(=O)N[C@@H](CCC(=O)N[C@@H](CCC(=O)NCCCOCCOCCOCCCNC(=O)CCC(=O)NCCCOCCOCCOCCCNC(=O)CCC(=O)NCCCOCCOCCOCCCNC(=O)CCC(=O)NCCCC[C@H](NC(=O)CNC(=O)[C@H](CCC(=O)O)NC(=O)C(C)(C)NC(=O)C(C)(C)NC(=O)[C@@H](NC(=O)[C@H](CCCCNC(C)=O)NC(=O)[C@H](C)NC(=O)[C@H](CCCNC(=N)N)NC(=O)[C@@H](NC(=O)[C@H](CCCCN)NC(=O)[C@H](CCC(=O)O)NC(=O)[C@H](CCCNC(=N)N)NC(=O)CNC(=O)[C@H](CCC(=O)O)NC(=O)[C@H](CC(C)C)NC(C)=O)C(C)C)[C@@H](C)CC)C(=O)N[C@@H](CO)C(=O)N[C@H](C(=O)N[C@@H](Cc1ccccc1)C(=O)NC(C)(C)C(=O)N[C@@H](CCCCN)C(=O)N[C@@H](CCCNC(=N)N)C(=O)N[C@@H](C)C(=O)N[C@@H](CCCCNC(C)=O)C(N)=O)[C@@H](C)O)C(=O)O)C(=O)O)C(=O)O` [compound 15] (Ac-LEGREKVRAK(Ac)I[Aib][Aib]EGK([Suc-X1])STF[Aib]KRAK(Ac)-NH2), the EC50 was 2.1 nM and the Emax stood at 85%.
Taken in the same sequence, the figures for `CCCCCCCCCCCCCCCC(=O)N[C@@H](CCC(=O)N[C@@H](CCC(=O)N[C@@H](CCC(=O)NCCOCCOCC(=O)NCCOCCOCC(=O)NCCOCCOCC(=O)NCCCC[C@H](NC(=O)CNC(=O)[C@H](CCC(=O)O)NC(=O)C(C)(C)NC(=O)C(C)(C)NC(=O)[C@@H](NC(=O)[C@H](CCCCNC(C)=O)NC(=O)[C@H](C)NC(=O)[C@H](CCCNC(=N)N)NC(=O)[C@@H](NC(=O)[C@H](CCCCN)NC(=O)[C@H](CCC(=O)O)NC(=O)[C@H](CCCNC(=N)N)NC(=O)CNC(=O)[C@H](CCC(=O)O)NC(=O)[C@H](CC(C)C)NC(C)=O)C(C)C)[C@@H](C)CC)C(=O)N[C@@H](CO)C(=O)N[C@H](C(=O)N[C@@H](Cc1c[nH]c2ccccc12)C(=O)N[C@@H](CO)C(=O)NC(C)(C)C(=O)N[C@@H](CCCNC(=N)N)C(=O)N[C@@H](CCCCN)C(=O)N[C@@H](CCCCNC(C)=O)C(N)=O)[C@@H](C)O)C(=O)O)C(=O)O)C(=O)O` [compound 19] (Ac-LEGREKVRAK(Ac)I[Aib][Aib]EGK([AEEA-AEEA-AEEA-γGlu-γGlu-γGlu-Palmitoyl])STWS[Aib]RKK(Ac)-NH2) were 11.5 nM and 94%.
In turn, `CCCCCCCCCCCCCCCC(=O)N[C@@H](CCC(=O)N[C@@H](CCC(=O)N[C@@H](CCC(=O)NCCCOCCOCCOCCCNC(=O)COCC(=O)NCCCOCCOCCOCCCNC(=O)COCC(=O)NCCCOCCOCCOCCCNC(=O)COCC(=O)NCCCC[C@H](NC(=O)CNC(=O)[C@H](CCC(=O)O)NC(=O)C(C)(C)NC(=O)C(C)(C)NC(=O)[C@@H](NC(=O)[C@H](CCCCNC(C)=O)NC(=O)[C@H](C)NC(=O)[C@H](CCCNC(=N)N)NC(=O)[C@@H](NC(=O)[C@H](CCCCN)NC(=O)[C@H](CCC(=O)O)NC(=O)[C@H](CCCNC(=N)N)NC(=O)CNC(=O)[C@H](CCC(=O)O)NC(=O)[C@H](CC(C)C)NC(C)=O)C(C)C)[C@@H](C)CC)C(=O)N[C@@H](CO)C(=O)N[C@H](C(=O)N[C@@H](Cc1ccccc1)C(=O)N[C@@H](CO)C(=O)N[C@@](C)(CCCCN)C(=O)N[C@@H](CCCNC(=N)N)C(=O)N[C@@H](C)C(=O)N[C@@H](CCCCNC(C)=O)C(N)=O)[C@@H](C)O)C(=O)O)C(=O)O)C(=O)O` [compound 22] (Ac-LEGREKVRAK(Ac)I[Aib][Aib]EGK(X7)STFS[αMeK]RAK(Ac)-NH2) displayed an EC50 of 1 nM and an Emax of 92%.
`CCCCCCCCCCCCCCCC(=O)N[C@@H](CCC(=O)N[C@@H](CCC(=O)N[C@@H](CCC(=O)NCCCOCCOCCOCCCNC(=O)CCC(=O)NCCCOCCOCCOCCCNC(=O)CCC(=O)NCCCOCCOCCOCCCNC(=O)CCC(=O)NCCCC[C@H](NC(=O)CNC(=O)[C@H](CCC(=O)O)NC(=O)C(C)(C)NC(=O)C(C)(C)NC(=O)[C@@H](NC(=O)[C@H](CCCCNC(C)=O)NC(=O)[C@H](C)NC(=O)[C@H](CCCNC(=N)N)NC(=O)[C@@H](NC(=O)[C@H](CCCNC(=N)N)NC(=O)[C@H](CCC(=O)O)NC(=O)[C@H](CCCNC(=N)N)NC(=O)CNC(=O)[C@H](CCC(=O)O)NC(=O)[C@H](CC(C)C)NC(C)=O)C(C)C)[C@@H](C)CC)C(=O)N[C@@H](CO)C(=O)N[C@H](C(=O)N[C@@H](Cc1ccccc1)C(=O)N[C@@H](CO)C(=O)N[C@@](C)(CCCCN)C(=O)N[C@@H](CCCNC(=N)N)C(=O)N[C@@H](C)C(=O)N[C@@H](CCCCNC(C)=O)C(N)=O)[C@@H](C)O)C(=O)O)C(=O)O)C(=O)O` [compound 27] (Ac-LEGRERVRAK(Ac)I[Aib][Aib]EGK([Suc-X1])STFS[αMeK]RAK(Ac)-NH2) showed an EC50 of 1.8 nM and a maximum response (Emax) of 98%.
On to `CCCCCCCCCCCCCCCC(=O)N[C@@H](CCC(=O)N[C@@H](CCC(=O)N[C@@H](CCC(=O)NCCCOCCOCCOCCCNC(=O)CCC(=O)NCCCOCCOCCOCCCNC(=O)CCC(=O)NCCCOCCOCCOCCCNC(=O)CCC(=O)NCCCC[C@H](NC(=O)CNC(=O)[C@H](CCC(=O)O)NC(=O)C(C)(C)NC(=O)C(C)(C)NC(=O)[C@@H](NC(=O)[C@H](CCCCNC(C)=O)NC(=O)[C@H](C)NC(=O)[C@H](CCCNC(=N)N)NC(=O)[C@@H](NC(=O)[C@H](CCCCCN)NC(=O)[C@H](CCC(=O)O)NC(=O)[C@H](CCCNC(=N)N)NC(=O)CNC(=O)[C@H](CCC(=O)O)NC(=O)[C@H](CC(C)C)NC(C)=O)C(C)C)[C@@H](C)CC)C(=O)N[C@@H](CO)C(=O)N[C@H](C(=O)N[C@@H](Cc1ccccc1)C(=O)N[C@@H](CO)C(=O)N[C@@](C)(CCCCN)C(=O)N[C@@H](CCCNC(=N)N)C(=O)N[C@@H](C)C(=O)N[C@@H](CCCCNC(C)=O)C(N)=O)[C@@H](C)O)C(=O)O)C(=O)O)C(=O)O` [compound 28] (Ac-LEGRE[hLys]VRAK(Ac)I[Aib][Aib]EGK([Suc-X1])STFS[αMeK]RAK(Ac)-NH2), for which the EC50 turned out to be 0.62 nM and the Emax amounted to 88%.

(Values after patent US11725036B2, “Modified lipidated relaxin B chain peptides and their therapeutic use” (Sanofi, priority 2018, dated 2023).)
